# Target: T1, human CRTH2 (Homo sapiens, UniProt Q9Y5Y4)
# T1 sequence (Q9Y5Y4 1-395): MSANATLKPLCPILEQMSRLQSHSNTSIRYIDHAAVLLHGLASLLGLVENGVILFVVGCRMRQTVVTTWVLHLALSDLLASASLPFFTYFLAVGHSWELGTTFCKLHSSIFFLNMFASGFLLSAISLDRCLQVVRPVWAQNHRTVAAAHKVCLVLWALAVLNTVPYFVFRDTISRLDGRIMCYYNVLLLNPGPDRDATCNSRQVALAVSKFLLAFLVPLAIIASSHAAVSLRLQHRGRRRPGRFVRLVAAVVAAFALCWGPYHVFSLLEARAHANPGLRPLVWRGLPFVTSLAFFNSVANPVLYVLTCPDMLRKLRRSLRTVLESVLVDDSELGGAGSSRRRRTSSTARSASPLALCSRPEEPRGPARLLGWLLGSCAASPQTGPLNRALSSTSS
# Assay: Human CRTH2 Receptor Binding Assay (whole cell, [3H]ramatroban)
# Design: expressed in transfected cells; host or cells: CHO-K1
# Settings: whole CHO-K1 cells stably expressing human CRTH2 and G-alpha16; 20 nM [3H]ramatroban; 1 hour, room temperature
# Excerpt: A whole cell receptor binding assay using [^3H]ramatroban as the competing radioactive ligand was employed to evaluate the compound binding activity to human CRTH2. The radioactive ligand [^3H]ramatroban was synthesized according to Sugimoto et. al. (Eur. J. Pharmacol. 524, 30-37, 2005) to a specific activity of 42 Ci/mmol.
# A cell line stably expressing human CRTH2 was established by transfecting CHO-K1 cells with two mammalian expression vectors that harbored human CRTH2 and G-alpha16 cDNAs, respectively, using FuGene® 6 transfection reagent (from Roche). Stable clones expressing CRTH2 were selected by staining each clone with BM16 (BD Pharmingen™ from BD Biosciences, a division of Becton, Dickinson and Company), which is a rat monoclonal antibody to human CRTH2. The cells were maintained as monolayer cultures in Ham's F-12 medium containing 10% fetal bovine serum, 100 units/mL penicillin, 100 μg/mL streptomycin, 2 mM glutamine, 0.5 mg/mL G418 (geneticin) for CRTH2, and 0.2 mg/mL hygromycin-B (for G-alpha 16). For whole cell receptor binding assay, the monolayer cells were rinsed once with PBS (phosphate buffered saline), dissociated using ethylenediaminetetraacetate (Versene™ EDTA from Lonza Inc.), and suspended in PBS containing 10 mM MgCl2 and 0.06% BSA (bovine serum albumin) at 1.5×10^6 cells/mL.
# The binding reactions (0.2 mL) were performed in 96-well plates at room temperature in PBS containing 1.5×10^5 cells, 10 mM MgCl2, 0.06% BSA, 20 nM [^3H]ramatroban, and test compound at various concentrations. After 1 hour of binding reactions, the cells were harvested on GF™/B filter microplates (microtiter plates with embedded glass fiber from PerkinElmer, Inc.) and washed 5 times with PBS using a Filtermate™ Harvester (a cell harvester that harvests and washes cells from microplates from PerkinElmer, Inc.). The radioactivities bound to the cells were determined using a microplate scintillation counter (TopCount® NXT, from PerkinElmer, Inc.) after adding 50 μL of Microscint™ 20 scintillation fluid (from PerkinElmer, Inc.) to each well of the filter plates. The radioactivity from non-specific binding was determined by replacing compound with 10 μM of 15(R)-15-methyl PGD2 (from Cayman Chemical Company) in the reaction mixtures. The radioactivity bound to the cells in the absence of compound (total binding) was determined by replacing compound with 0.25% of DMSO (dimethyl sulfoxide) in the reaction mixture. Specific binding data were obtained by subtracting the radioactivity of non-specific binding from each binding data.
# The IC50 value is defined as the concentration of the tested compound that is required for 50% inhibition of total specific binding. In order to calculate the IC50 value, the percent inhibition data were determined for 7 concentrations for each compound. The percent inhibition for a compound at each concentration was calculated according to the following formula, [1-(specific binding in the presence of compound)/(total specific binding)]×100. The IC50 value was then obtained by fitting the percent inhibition data to a sigmoidal dose-response (4 parameter logistic) model in the XLfit® software Excel add-in program [from ID Business Solutions Ltd., model 205, where F(x)=(A+(B−A)/(1+((C/x)^D)))].
smiles,measurement,value
"Cc1c(CC(=O)O)cc2ccc(F)cc2c1C(=O)N1CCN(S(=O)(=O)c2ccc(F)cc2F)CC1 [Example 1-17, {4-[4-(2,4-Difluoro-benzenesulfonyl)-piperazine-1-carbonyl]-6-fluoro-3-methyl-naphthalen-2-yl}-acetic acid]",IC50,3.7 nM
"O=C(O)Cc1cc(OC2CCN(C(=O)c3ccccc3F)CC2)c2cc(F)ccc2c1 [Example 5-7, {6-Fluoro-4-[1-(2-fluoro-benzoyl)-piperidin-4-yloxy]-naphthalen-2-yl}-acetic acid]",IC50,19.4 nM
"Cc1c(CC(=O)O)cc2ccc(F)cc2c1C(=O)N1CCN(S(C)(=O)=O)CC1 [Example 1-3, [6-Fluoro-4-(4-methanesulfonyl-piperazine-1-carbonyl)-3-methyl-naphthalen-2-yl]-acetic acid]",IC50,21.2 nM
"Cc1c(CC(=O)O)cc2ccc(F)cc2c1C(=O)N1CCN(c2ncccn2)CC1 [Example 2-5, [6-Fluoro-3-methyl-4-(4-pyrimidin-2-yl-piperazine-1-carbonyl)-naphthalen-2-yl]-acetic acid]",IC50,276 nM
"CCC(=O)N1CCC(Oc2cc(CC(=O)O)cc3ccc(F)cc23)CC1 [Example 5-2, [6-Fluoro-4-(1-propionyl-piperidin-4-yloxy)-naphthalen-2-yl]-acetic acid]",IC50,120 nM
"Cc1c(CC(=O)O)cc2ccc(F)cc2c1C(=O)N1CCN(c2ccc(C(F)(F)F)cc2)CC1 [Example 2-19, {6-Fluoro-3-methyl-4-[4-(4-trifluoromethyl-phenyl)-piperazine-1-carbonyl]-naphthalen-2-yl}-acetic acid]",IC50,10 nM
"O=C(O)Cc1cc(OC2CCN(S(=O)(=O)C3CC3)CC2)c2cc(F)ccc2c1 [Example 4-4, [4-(1-Cyclopropanesulfonyl-piperidin-4-yloxy)-6-fluoro-naphthalen-2-yl]-acetic acid]",IC50,25.4 nM
"Cc1c(CC(=O)O)cc2ccc(F)cc2c1C(=O)N1CCN(c2cc(Cl)cc(Cl)c2)CC1 [Example 2-17, {4-[4-(3,5-Dichloro-phenyl)-piperazine-1-carbonyl]-6-fluoro-3-methyl-naphthalen-2-yl}-acetic acid]",IC50,21.9 nM
"Cc1c(CC(=O)O)cc2ccc(F)cc2c1C(=O)N1CCN(S(=O)(=O)Cc2ccccc2)CC1 [Example 1-13, [6-Fluoro-3-methyl-4-(4-phenylmethanesulfonyl-piperazine-1-carbonyl)-naphthalen-2-yl]-acetic acid]",IC50,5.4 nM
"O=C(O)Cc1cc(OC2CCN(C(=O)c3ccc(F)cc3)CC2)c2cc(F)ccc2c1 [Example 5-9, {6-Fluoro-4-[1-(4-fluoro-benzoyl)-piperidin-4-yloxy]-naphthalen-2-yl}-acetic acid]",IC50,31.3 nM
"CCS(=O)(=O)N1CCN(C(=O)c2cc(CC(=O)O)cc3ccc(F)cc23)CC1 [Example 1-2, [4-(4-Ethanesulfonyl-piperazine-1-carbonyl)-6-fluoro-naphthalen-2-yl]-acetic acid]",IC50,7.2 nM
"O=C(O)Cc1cc(OC2CCN(C(=O)c3cccc(F)c3)CC2)c2cc(F)ccc2c1 [Example 5-8, {6-Fluoro-4-[1-(3-fluoro-benzoyl)-piperidin-4-yloxy]-naphthalen-2-yl}-acetic acid]",IC50,29.8 nM
"Cc1c(CC(=O)O)cc2ccc(F)cc2c1C(=O)N1CCN(c2cccc(C(F)(F)F)c2)CC1 [Example 2-7, {6-Fluoro-3-methyl-4-[4-(3-trifluoromethyl-phenyl)-piperazine-1-carbonyl]-naphthalen-2-yl}-acetic acid]",IC50,57.1 nM
"O=C(O)Cc1cc(OC2CCN(S(=O)(=O)Cc3ccccc3)CC2)c2cc(F)ccc2c1 [Example 4-10, [6-Fluoro-4-(1-phenylmethanesulfonyl-piperidin-4-yloxy)-naphthalen-2-yl]-acetic acid]",IC50,2.7 nM
"Cc1c(CC(=O)O)cc2ccc(F)cc2c1C(=O)N1CCN(c2c(Cl)cncc2Cl)CC1 [Example 2-23, {4-[4-(3,5-Dichloro-pyridin-4-yl)-piperazine-1-carbonyl]-6-fluoro-3-methyl-naphthalen-2-yl}-acetic acid]",IC50,63.5 nM

# Source: patent publication US8188090B2, “Naphthylacetic acids” (Hoffman-La Roche Inc., priority 2008, dated 2012)
